Earlier results in patent publication US20080032954A1, “Vascular Damaging Agents for Administration as an Intravenous Infusion” (priority 2004, published 2008).

What was measured:
[1] = patients, 30 minute intravenous infusion once weekly
[2] = tested on: proliferating endothelial cells
tumour = conditions: nude rats
[3] = phase I study, patients with advanced cancer
[4] = patients, intravenous infusion at three-week intervals
[5] = 20 mg/kg as 24-hour subcutaneous infusion versus 5 to 10 second IV bolus

COc1ccc(/C=C\c2cc(OC)c(OC)c(OC)c2)cc1NC(=O)[C@@H](N)CO [AVE8062A]
hypotension [1]: instances of asymptomatic hypotension

COc1cc2c(c(OC)c1OC)-c1ccc(OP(=O)(O)O)cc1[C@@H](NC(C)=O)CC2 [ZD6126, (5S)-5-(acetylamino)-9,10,11-trimethoxy-6,7-dihydro-5H-dibenzo[a,c]cyclohepten-3-yl dihydrogen phosphate]
effect on tubulin cytoskeleton and cell shape [2]: disrupts the tubulin cytoskeleton causing rounding up and/or detachment of proliferating endothelial cells | ischemic changes on ECG (one of the two patients with troponin I elevation, 10 minute IV infusion once every three weeks): reversible grade 2 ischemic changes on ECG | elevation in troponin I (patients, 10 minute intravenous infusion once every three weeks): two patients exhibited grade 3 transient asymptomatic elevation in troponin I | blood pressure change (the other patient with troponin I elevation, 10 minute IV infusion once every three weeks): increase in blood pressure one hour after dosing | toxicity compared to single intravenous bolus (tumour; [5]): significant increases in toxicity | tumour necrosis compared to single intravenous bolus (tumour; [5]): no increase in tumour necrosis | tolerability (tumour; 50 mg/kg as 24-hour subcutaneous infusion, in contrast to bolus of the same dose): not tolerated

COc1ccc(/C=C\c2cc(OC)c(OC)c(OC)c2)cc1OP(=O)(O)O [combretastatin A4 phosphate]
hemodynamic and cardiac toxic events [3]: numerous hemodynamic and cardiac toxic events were observed

COc1ccc(/C=C\c2cc(OC)c(OC)c(OC)c2)cc1O [combretastatin A4]
toxicity profile, 10-minute versus 60-minute infusion [4]: no difference in the toxicity profile
